Data published in patent US20110034413A1, “NOVEL QUERCETIN DERIVATIVES AS ANTI-CANCER AGENTS” (priority 2007, published 2011).
≈ marks a conversion by molar mass, not a printed value.

Experiments:
[1] = tested on: PA-1 (Ovary) cancer cells; experiment: Colorimetric MTT conversion assay, PA-1; type: cell-based; settings: Homo sapiens, 72 h exposure, 10 μM to 100 μM
Procedure: (§1) The anticancer potential of the novel Quercetin derivatives of formula (I) were evaluated and subsequently compared with Quercetin (II). The anticancer potential was determined by the colorimetric MTT conversion assay of Mossman. Human cancer cells representing ovary (PA-1; SK-OV-3); prostate (DU 145); lung (A-549) and normal fibroblast (NIH-3T3) were separately seeded at density of 1000 cells/well into 96 well plates in 180 μl of culture medium with 10% fetal calf serum. After 24 h, cells were incubated with different concentrations of the novel Quercetin derivatives ranging from 10 μM to 100 μM with relevant controls at 37° C. in a CO2 incubator in triplicate wells. The exposure medium (Quercetin derivatives in culture medium) of all the cells was refreshed after every 24 h. Cells were incubated with the derivatives for total of 72 h. The assay was terminated by the addition of 20 μl, of MTT solution (5 mg/ml) in each well and percentage cytotoxicity was calculated as given below. The IC50 values were determined by nonlinear regression using Prism software v 4.01.
(§2) Percentage Cytotoxicity=100×[1−(X/R1)], where X=absorbance of treated sample at 540 nm

[2] = Aqueous solubility by UV spectrophotometry (500 μM solutions in aqueous media from DMSO stock); type: physicochemical; settings: for solubility: kinetic from dmso stock, aqueous media, 500 μM solution prepared from DMSO stock, UV OD at λmax; for Aqueous solubility compared with Quercetin (II) / QC-12 (IV), in words: comparison drawn from Table-II
Procedure: The aqueous solubility of the novel Quercetin derivatives of formula (I) were determined and subsequently compared with QC 12. 500 μM solutions of the various novel Quercetin derivatives were prepared in aqueous media from DMSO stock solution. The samples were scanned in UV spectrophotometer at its λmax to obtain optical density (O.D) of the compound. Concentration against the OD value was obtained by calibration curve constructed by plotting the Optical density Vs concentration of calibration standards of the compounds.
Calibration standards were prepared by diluting the stock solution of the compound further in suitable solvents ensuring the overall compound solubility. Calibration standard of concentration 500 μM, 200 μM, 50 μM, 12.5 μM and 3.13 μM were prepared. These calibration standards were scanned in UV spectrophotometer at its highest wavelength (λmax) to obtain the optical density values (OD). A standard curve was constructed by plotting the Optical density Vs concentration.

[3] = tested on: SKOV3 (Ovary) cancer cells; experiment: Colorimetric MTT conversion assay, SKOV3; type: cell-based; settings: Homo sapiens, SK-OV-3, 72 h exposure, 10 μM to 100 μM
Procedure: as §1, §2

[4] = tested on: DU 145 (Prostate) cancer cells; experiment: Colorimetric MTT conversion assay, DU 145; type: cell-based; settings: Homo sapiens, 72 h exposure, 10 μM to 100 μM
Procedure: as §1, §2

[5] = tested on: NIH 3T3 (Normal) fibroblast; experiment: Colorimetric MTT conversion assay, NIH 3T3; type: cell-based; settings: Mus musculus, NIH3T3, 72 h exposure, 10 μM to 100 μM
Procedure: as §1, §2

[6] = Plasma stability (half-life in plasma, 100 μM, 37° C., liquid chromatography); type: in vitro ADME; settings: plasma spiked at 100 μM, incubated at 37° C.
Procedure: The Plasma stability of the novel Quercetin derivatives of formula (I) were evaluated by determining their half-life in plasma and subsequently compared with QC-12 (IV). Plasma samples of concentration 100 μM spiked with the compounds were incubated at 37° C. and at specified time point the samples were quenched using chilled acetonitrile. Samples were then analyzed using liquid chromatography to determine the concentration at respective time point. Half-life was calculated from the logarithmic curve drawn between time and concentration.

[7] = tested on: different Cancer Cell Lines; experiment: Colorimetric MTT conversion assay, overall comparison over the cell line panel; type: cell-based, Human; settings: comparison drawn from Table-IV
Procedure: as §1, §2

[8] = tested on: A 549 (Lung) cancer cells; experiment: Colorimetric MTT conversion assay, A 549; type: cell-based; settings: Homo sapiens, A549, 72 h exposure, 10 μM to 100 μM
Procedure: as §1, §2

SMILES	IC50 [1] [µM]	solubility [2] [µM]	IC50 [3] [µM]	IC50 [4] [µM]	IC50 [5] [µM]	Aqueous solubility compared with Quercetin (II) / QC-12 (IV), in words [2]	half-life at 100 μM [6] [min]	Cytotoxic potential compared with Quercetin (II), in words [7]	IC50 [8] [µM]
CC(C)(C)C(=O)OCOc1cc(-c2oc3cc(OCc4ccccc4)cc(O)c3c(=O)c2OCc2ccccc2)ccc1OCc1ccccc1 [Compound No. 1, (2-(Benzyloxy)-5-(3,7-bis(benzyloxy)-5-hydroxy-4-oxo-4H-chromen-2-yl)phenoxy)methyl pivalate]	> 100	1.48 (≈ 1.02 µg/mL)	> 100	> 100	> 100	–	–	–	–
CC(=O)OCOc1cc(-c2oc3cc(OCc4ccccc4)cc(O)c3c(=O)c2OCc2ccccc2)ccc1OCc1ccccc1 [Compound No. 2, (2-(Benzyloxy)-5-(3,7-bis(benzyloxy)-5-hydroxy-4-oxo-4H-chromen-2-yl)phenoxy)methyl acetate]	> 100	0.591	> 100	> 100	> 100	–	–	–	–
CC(C)(C)C(=O)OCOc1cc(-c2oc3cc(O)cc(O)c3c(=O)c2O)ccc1O [Compound No. 7, (2-hydroxy-5-(3,5,7-trihydroxy-4-oxo-4H-chromen-2-yl)phenoxy)methyl pivalate]	20.9	30.6 (≈ 12.7 µg/mL)	> 100	83.1	> 100	better solubility than Quercetin (II)	6.24	better cytotoxic potential than Quercetin (II)	–
CC(=O)OCOc1cc(-c2oc3cc(O)cc(O)c3c(=O)c2O)ccc1O [Compound No. 8, (2-hydroxy-5-(3,5,7-trihydroxy-4-oxo-4H-chromen-2-yl)phenoxy)methyl acetate]	19.4	16.5	> 100	> 100	> 100	better solubility than Quercetin (II)	< 3	better cytotoxic potential than Quercetin (II)	–
CCCC(=O)OCOc1cc(-c2oc3cc(OCc4ccccc4)cc(O)c3c(=O)c2OCc2ccccc2)ccc1OCc1ccccc1 [Compound No. 13, (2-(Benzyloxy)-5-(3,7-bis(benzyloxy)-5-hydroxy-4-oxo-4H-chromen-2-yl)phenoxy)methyl butyrate]	> 100	< 3.13	> 100	> 100	> 100	–	–	–	> 100
CCCC(=O)OCOc1cc(-c2oc3cc(O)cc(O)c3c(=O)c2O)ccc1O [Compound No. 14, (2-hydroxy-5-(3,5,7-trihydroxy-4-oxo-4H-chromen-2-yl)phenoxy)methyl butyrate]	< 10	199 (≈ 80.1 µg/mL)	94.6	> 100	> 100	solubility comparable to QC-12 (IV)	< 3	better cytotoxic potential than Quercetin (II)	61.9
O=C(O)CNC(=O)Oc1cc(-c2oc3cc(O)cc(O)c3c(=O)c2O)ccc1O [QC-12 (IV), reference compound]	–	> 200	–	–	–	–	43.9	–	–
O=c1c(O)c(-c2ccc(O)c(O)c2)oc2cc(O)cc(O)c12 [Quercetin (II), 2-(3,4-Dihydroxyphenyl)-3,5,7-trihydroxy-4H-1-benzopyran-4-one, reference compound]	35.3	4.02 (≈ 1.22 µg/mL)	88.4	> 100	68.7	–	–	–	83.7
